The source of these data is paper PMC5128747, “Biscogniauxone, a New Isopyrrolonaphthoquinone Compound from the Fungus Biscogniauxia mediterranea Isolated from Deep-Sea Sediments” (Marine Drugs, 2016).

≈ marks a conversion by molar mass, not a printed value. Where “and” joins values, the source holds several entries; their conditions need not be identical. Equal values may be shown once. Read-outs that look alike come from different tables or passages of the source. Where a SMILES comes first, the peptide text is derived from it.

The subject of experiment [1] is Trichophyton rubrum. In words: Antifungal growth inhibition, Trichophyton rubrum. The class given is cell-based. As to conditions: in the same concentration range (IC50 in the range of 100 μM). The method, then:
(§1) The antimicrobial activities of compounds 1 and 2 against the bacteria Bacillus subtilis as well as the human pathogenic yeast Candida albicans (DSM 1386) were determined according to Ohlendorf et al.. The bioassays with the clinically relevant bacterial strains Staphylococcus epidermidis (DSM 20044), methicillin-resistant Staphylococcus aureus (MRSA) (DSM 18827), and the causative agent of acne, Propionibacterium acnes (DSM 1897^T), were performed as described by Silber et al.. The phytopathogenic fungus Septoria tritici and the dermatophytic fungus Trichophyton rubrum as well as the cytotoxic effect on the human hepatocellular liver carcinoma cell line HepG2 were tested according to Jansen et al.. Inhibition of the enzymes glycogen synthase kinase (GSK-3β), acetylcholinesterase (AchE), phosphodiesterase (PDE-4B2), and protein tyrosine phosphatase (PTP1B) was determined according to Baki et al., Ohlendorf et al., Schulz et al., and Silber et al., respectively. The concentration of the compounds used in the initial bioassays was 100 μM (antibiotic tests), 50 μM (cytotoxic tests), and 10 μM (enzymatic tests). […]

For experiment [2], the system named is Septoria tritici. As to the kind of experiment: Antifungal growth inhibition, Septoria tritici. The experiment is classed as cell-based. The conditions noted are these: in the same concentration range (IC50 in the range of 100 μM). The method, then: as §1
Experiment [3] concerns the target acetylcholinesterase (AchE) (Homo sapiens, UniProt P22303). As to the kind of experiment: Inhibition of acetylcholinesterase (AchE). The experiment is classed as biochemical. The method, then:
(§2) The phytopathogenic fungus Septoria tritici and the dermatophytic fungus Trichophyton rubrum as well as the cytotoxic effect on the human hepatocellular liver carcinoma cell line HepG2 were tested according to Jansen et al.. Inhibition of the enzymes glycogen synthase kinase (GSK-3β), acetylcholinesterase (AchE), phosphodiesterase (PDE-4B2), and protein tyrosine phosphatase (PTP1B) was determined according to Baki et al., Ohlendorf et al., Schulz et al., and Silber et al., respectively. The concentration of the compounds used in the initial bioassays was 100 μM (antibiotic tests), 50 μM (cytotoxic tests), and 10 μM (enzymatic tests).

Experiment [4] concerns methicillin-resistant Staphylococcus aureus (MRSA) (DSM 18827). As to the kind of experiment: Antibacterial growth inhibition, MRSA. The experiment is classed as cell-based. The conditions noted are these: very weak inhibition, in the range of.
Experiment [5] concerns the target T1, glycogen synthase kinase (GSK-3β) (Homo sapiens, UniProt P49841). As to the kind of experiment: Inhibition of glycogen synthase kinase (GSK-3β). The class given is biochemical. As to conditions: concentrations 0.1 μM to 50 μM analyzed twice in duplicates. The method, then: as §2
The test system of experiment [6] is Staphylococcus epidermidis (DSM 20044). As to the kind of experiment: Antibacterial growth inhibition, Staphylococcus epidermidis. The experiment is classed as cell-based. The conditions noted are these: DSM20044, very weak inhibition, in the range of. The method, then:
as §1

Experiment [7] has as its target T1, glycogen synthase kinase (GSK-3β). Details: method as in PMID 24045329. The conditions noted are these: read-out: IC50, inhibition of GSK-3β; cited from earlier work.

T1 sequence (P49841 whole entry): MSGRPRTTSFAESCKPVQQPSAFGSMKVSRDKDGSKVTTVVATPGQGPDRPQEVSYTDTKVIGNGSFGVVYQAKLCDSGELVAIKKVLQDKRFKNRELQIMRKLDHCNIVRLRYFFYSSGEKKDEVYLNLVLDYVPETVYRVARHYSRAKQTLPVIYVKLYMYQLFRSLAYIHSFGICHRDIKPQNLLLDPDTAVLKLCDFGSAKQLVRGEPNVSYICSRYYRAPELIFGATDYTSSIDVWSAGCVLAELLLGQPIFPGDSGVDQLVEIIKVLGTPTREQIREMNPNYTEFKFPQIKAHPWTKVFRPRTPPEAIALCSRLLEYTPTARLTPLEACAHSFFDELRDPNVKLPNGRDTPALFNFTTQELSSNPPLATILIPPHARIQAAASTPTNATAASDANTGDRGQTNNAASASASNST
Sequence of acetylcholinesterase (AchE) (P22303 32-614): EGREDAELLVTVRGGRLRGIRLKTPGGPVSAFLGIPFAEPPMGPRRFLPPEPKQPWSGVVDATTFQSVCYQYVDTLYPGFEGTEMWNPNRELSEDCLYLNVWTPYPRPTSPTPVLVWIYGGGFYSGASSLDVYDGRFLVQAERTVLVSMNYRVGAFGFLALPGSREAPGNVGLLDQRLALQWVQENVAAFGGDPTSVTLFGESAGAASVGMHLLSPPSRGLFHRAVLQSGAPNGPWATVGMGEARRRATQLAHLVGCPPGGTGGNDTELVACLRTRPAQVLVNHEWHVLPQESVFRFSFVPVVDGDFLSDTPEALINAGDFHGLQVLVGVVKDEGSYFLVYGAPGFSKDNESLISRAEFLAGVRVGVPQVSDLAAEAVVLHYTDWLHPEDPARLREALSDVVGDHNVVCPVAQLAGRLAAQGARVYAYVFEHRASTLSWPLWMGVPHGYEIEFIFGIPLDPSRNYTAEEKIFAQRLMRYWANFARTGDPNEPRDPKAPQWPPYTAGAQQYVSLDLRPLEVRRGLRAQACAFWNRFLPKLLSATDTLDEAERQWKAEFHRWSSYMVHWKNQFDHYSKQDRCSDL

Take `COc1cc(O)c2c(c1C)C[C@H](C)OC2=O` [Compound 2, 6-methoxy-5-methyl mellein]: the “inhibition of Trichophyton rubrum” value in experiment [1] is listed as “weakly inhibited”. In experiment [2], the “inhibition of Septoria tritici” value is reported as “weakly inhibited”.
`CC(C)C[C@@H]1NC(=O)[C@H](CC(C)C)NC(=O)[C@H](C(C)C)NC(=O)[C@H](CC(C)C)NC(=O)[C@H](Cc2ccccc2)NC1=O` [Compound 3, cyclo-(L-Phe-L-Leu-L-Val-L-Leu-L-Leu)] (cyclo(FLVLL)): the “minimal inhibition concentration (MIC), inhibitory effect on AchE” value in experiment [3] came to 5.87 µM (≈ 3.44 µg/mL).
As usually defined, the IC50 is the concentration at which inhibition is half-maximal. As to `O=C1c2c[nH]cc2C(=O)c2c(O)cc(O)cc21` [Compound 1, biscogniauxone], the IC50 in experiment [4] is around 100 µM; in experiment [5], 8.04 µM and 8 µM; in experiment [6], around 100 µM.
As for bhimamycin H, the IC50 in experiment [7] is 18 µM.
